Results taken from article PMC10348910, “Epigenetic reprogramming of cell cycle genes by ACK1 promotes breast cancer resistance to CDK4/6 inhibitor” (Oncogene, 2023).

Experiments:
[1] = system: advanced ER+/AR+ breast cancer; parameters: method as in NCT00755885; settings: ref NCT00755885, cited from earlier work
[2] = system: AR+ TNBC; parameters: method as in PMID 29373071, PMID 25944485; settings: cited from earlier work
[3] = system: BT549; assay: proliferation assay, trypan blue exclusion; format: cell-based; settings: BT549 (lacking Rb), 96 h
Protocol: (§1) A–F Breast cancer cells were treated with either vehicle or (R)-9b for 48 h; cells were harvested and processed for cell cycle analysis using propidium iodide staining, followed by flow cytometry. G BT549 and H MDA-MB-468 cells were treated with varying drug concentrations of palbociclib or (R)-9b for 96 h and the cell viability assessed using trypan blue exclusion method. I BT549, and J MDA-MB-468 cells were treated with 1 µM palbociclib or (R)-9b for 48 h and subjected to cell cycle analysis using propidium iodide staining, followed by flow-cytometry. Palbociclib-resistant MDA-MB-231 (K) and HCC-1395 (L) were generated and treated with varying drug concentrations of palbociclib or (R)-9b for 96 h and the cell viability assessed using trypan blue exclusion method.
(§2) For proliferation assay, 5 × 10^4 cells were plated in 6-well plate and treated with either vehicle (DMSO) or varying concentrations of (R)-9b or palbociclib in complete media for 96 h and number of viable cells were counted by trypan blue exclusion assay. Breast cancer cell lines were treated with vehicle or varying concentrations of (R)-9b for 72 h. The cells were harvested, washed 2 times with PBS and incubated with 3 ul of Annexin V-FITC antibody according to the manufacturers protocol (BD Biosciences). Five µl Propidium iodide was used to stain necrotic cells. The cells were acquired using the BD FACSCalibur machine (BD Biosciences) and data was analyzed using FlowJo software. Cell cycle analysis was performed as mentioned earlier. Briefly, vehicle or (R)-9b (48 h) treated cells were harvested by trypsinization, washed 2 times with PBS, and fixed using chilled 70% Ethanol for 1 h, followed by 2 washes with PBS. The cell pellets were treated with 50 µl RNase A (100 µg/ml; Sigma) for 15 min at 37 °C and Propidium Iodide (PI; 50 µg/ml, Sigma) was added to these cells, followed by acquisition using BD FACS Canto-II or FACSCalibur machines. The data were analyzed using FlowJo software.

[4] = system: MDA-MB-468; assay: proliferation assay, trypan blue exclusion; format: cell-based; settings: MDA-MB-468 (lacking Rb), 96 h
Protocol: as §1, §2

[5] = system: MDA-MB-468 xenografts; assay: MDA-MB-468 xenograft in mammary fat pad; format: in vivo, female SCID mice
Protocol: To validate these findings in breast tumors, MDA-MB-468 cells were injected in female SCID mice. Once palpable tumors were formed (5 weeks), mice were treated with vehicle (6% captisol), palbociclib (80 mg/Kg of body weight), (R)-9b (36 mg/Kg of body weight) by oral route, or (R)-9b (24 mg/Kg of body weight) by subcutaneous injection, five times a week.
Fig. 7 ACK1 inhibitor overcomes palbociclib-resistant breast cancer growth and metastasis. A 3 × 10^6 MDA-MB-468 cells were injected in the 4th inguinal mammary fat pad of female SCID mice. Once the tumors were palpable, the mice were treated with either vehicle (Captisol; n = 7), Palbociclib at 80 mg/kg (n = 6), or (R)-9b at 36 mg/Kg (n = 6) orally. In addition, mice were injected with (R)-9b at 24 mg/Kg (n = 7) subcutaneously. Mice were treated five times a week, for 22 days. B, C The tumors were harvested and photographed, and the weights were recorded. D Vehicle or (R)-9b treated breast cancer cells were subjected to ChIP using pY88-H4 antibody, followed by qPCR for CXCR4 gene. E CXCR4 mRNA transcript levels in vehicle or (R)-9b treated MDA-MB-231 cells. 18S rRNA was used as housekeeping gene. F MDA-MB-231 cells were transfected with ACK1 or scrambled siRNA, followed by qRT-PCR to determine CXCR4 mRNA transcript levels. G Representative lung metastatic deposits of MDA-MB-231 cells injected via the tail veins in female SCID mice, treated with either vehicle or 24 mg/Kg (R)-9b orally. H Graphical quantitation of lung metastatic deposit. I and J 5 × 10^5 luciferase expressing 4T1 cells were injected into 4th inguinal mammary fat pad of female BALB/c mice. Once the tumors were palpable, mice were treated with either vehicle or (R)-9b at 24 mg/Kg (n = 3, each) subcutaneously for 2 weeks, five times a week. The metastases were assessed using IVIS. Data are represented as the mean ± SEM. *p < 0.05; **p < 0.01; ***p < 0.001. For (A, C–F, I), p values were calculated using unpaired two-tailed Student’s t test.
All animal experiments were performed using the standards for humane care in accordance with the NIH Guide for the Care and Use of Laboratory Animals. Mice were obtained from Charles River Laboratories and experiments were performed according to IACUC protocols (IACUC # 20180259) approved in writing by Washington University in St. Louis Department of Comparative Medicine (DCM). 1.5 × 10^6 Cal-148 or MCF7, or 3 × 10^6 MDA-MB-468 cells were suspended in 200 µl of PBS with 50% matrigel (BD Biosciences) and were implanted subcutaneously into the mammary fat pad (between fourth and fifth inguinal) of female SCID C.B17 mice (n = 8 per group). Once the tumors were palpable (about 4–5 weeks), mice were randomly chosen for subcutaneous injection (Cal-148 and MCF7; 24 mg/Kg body weight) or given oral gavage with (R)-9b (MCF7; 36 mg/Kg body weight) resuspended in 6% Captisol (or 6% Captisol in PBS as vehicle), five times a week, for 4–5 weeks. Tumor volumes were measured twice a week using calipers. At the end of the study, all mice were humanely euthanized, tumors extracted and weighed.

[6] = in vitro; settings: rat
[7] = in vitro; settings: human
[8] = human, plasma

C[C@]12CC[C@H](O)CC1=CC[C@@H]1[C@@H]2CC[C@]2(C)C(c3cccnc3)=CC[C@@H]12 [abiraterone]
clinical benefit rate ([1]; in 24 weeks): 20%
median progression-free survival duration [1]: 2.8 months

CNC(=O)c1ccc(N2C(=S)N(c3ccc(C#N)c(C(F)(F)F)c3)C(=O)C2(C)C)cc1F [enzalutamide]
clinical benefit rate ([2]; at 16 weeks): 33%
median progression-free survival duration [2]: 3.3 months

CC(=O)c1c(C)c2cnc(Nc3ccc(N4CCNCC4)cn3)nc2n(C2CCCC2)c1=O [palbociclib, reference compound]
sensitivity (cell proliferation) [3]: resistant
sensitivity (cell proliferation) [4]: resistant
xenograft tumor growth ([5]; palbociclib 80 mg/Kg oral, (R)-9b 36 mg/Kg oral or 24 mg/Kg subcutaneous, five times a week, 3 weeks): robust tumor growth
weights of the mice ([5]; palbociclib 80 mg/Kg, (R)-9b 36 mg/Kg oral or 24 mg/Kg subcutaneous): modest decrease in weights
histology (H&E) of heart, spleen, kidneys and livers ([5]; palbociclib 80 mg/Kg, (R)-9b oral and subcutaneous): did not reveal histological abnormalities

CC(=O)CC(c1ccccc1)c1c(O)c2ccccc2oc1=O (stereo not shown) [warfarin]
recovery ([6]; % Recovery): 86.7%
fraction unbound at 6 h ([6]; plasma, % Bound): 0.0069
remaining at 6 h ([6]; plasma, % Remaining at 6 hr): 88.2%
fraction unbound at 6 h ([6]; plasma, % Unbound): 0.0069
recovery ([7]; % Recovery): 92.3%
fraction unbound ([7]; plasma, % Bound): 0.0147
remaining at 6 h ([7]; plasma, % Remaining at 6 hr): 97.8%
fraction unbound ([7]; plasma, % Unbound): 0.0147
% Bound [8]: 98.53%
% Unbound [8]: 1.47%
